One data set has as its system gut motility. The experiment in a line: Charcoal propulsion test (gut motility). Format: in vivo, rat. How it is done:
The effect of a drug on gut motility can be studied by means of the charcoal propulsion test.
The method used was based on that described by Takemori et al. (J. Pharmacol. Exp. Ther. 169:39, 1969). Test treatments were administered orally 60 minutes prior to an oral dose of a 10% suspension of charcoal in 2.5% gum Arabic (2 ml/kg). Twenty minutes after dosing with charcoal, the rats were sacrificed and the entire gastrointestinal tract was removed quickly and carefully. The distance that the charcoal meal had travelled toward the caecum was measured and expressed as a percentage of the total gut length.

Data set [1] can be described thus: Comparative pharmacokinetic screening study of guanfacine prodrugs in the monkey. Particulars: oral gavage.
Protocol: Blood samples were taken on 4 sampling occasions at various times up to 6 hours after administration and submitted to analysis for the parent drug and prodrug using a qualified LC-MS-MS assay.
The nature of data set [2]: Prodrug stability in simulated intestinal fluid (USP). Particulars: 37° C.
Protocol: (§1) The remaining concentrations of the prodrugs were then assayed by HPLC.
A short description of data set [3]: Prodrug stability in simulated gastric fluid (USP). Particulars: 37° C.
Protocol: as §1
The nature of data set [4]: Pharmacokinetics in rats in hepatic portal and tail veins following oral administration. Format: in vivo. Particulars: rat, equimolar dose. The procedure:
Rats were surgically prepared under isofluorane anaesthesia by attaching a silicon catheter to the portal vein then exteriorising it at the nape of the neck with a blood collection port attached.
At each sampling time serial point blood samples (approximately 0.2 mL) were taken simultaneously from the lateral tail vein cannula and the hepatic portal cannula. After collection of the final blood sample each animal was killed by cervical dislocation. Blood samples were collected at 15, 30 minutes and 1, 2, 4, 8 and 24 hours post dose.
Pharmacokinetic parameters in portal and systemic plasma were derived by non-compartmental analysis (linear/logarithmic trapezoidal) using WinNonlin (Version 4.1) software.

A short description of data set [5]: Comparative bioavailability study of guanfacine in monkeys (full pharmacokinetics). Format: in vivo, cynomolgus monkey. Particulars: oral gavage, monkey. How it is done:
The characteristics of the test animals are set out in Table 13.
The following pharmacokinetic parameters derived from the plasma analytical data were determined using Win Nonlin;

A short description of data set [6]: Comparative bioavailability study in monkeys in the fasted or fed state. Format: in vivo, cynomolgus monkey. The procedure:
Five male cynomolgus monkeys were used. Food was withdrawn from animals in fasted groups from the evening of the day prior to dosing until approximately 4 hours after dosing.
The formulations were prepared on the day of dosing and administered orally as soon as practicable up to a maximum of 2 hours after formulation.
Blood samples (0.5 mL) were collected from all animals pre-dose and at 0.5, 1, 2, 3, 4, 6, 8 10, 12, 16 and 24 hours after dosing.
Following processing, the resultant plasma was frozen and analysed by a qualified method. Pharmacokinetic evaluation was performed using a validated pharmacokinetic software package.

The conditions of data set [7]: immediate release guanfacine (TENEX); cited from earlier work.
The mark [8] stands for this setting: Rattus norvegicus, po, read-out: % inhibition of GIT transit compard to vehicle.
The mark [9] stands for this setting: Rattus norvegicus, po, Study 1, oral dose 0.1 mg/kg guanfacine free base equivalents, read-out: % inhibition of GIT transit compard to vehicle.
[10] abbreviates: Rattus norvegicus, po, Study 1, oral dose 0.3 mg/kg guanfacine free base equivalents, read-out: % inhibition of GIT transit compard to vehicle.
Where [11] appears, read: Rattus norvegicus, po, Study 1, oral dose 1 mg/kg guanfacine free base equivalents, read-out: % inhibition of GIT transit compard to vehicle.
Where [12] appears, read: Rattus norvegicus, po, Study 1, oral dose 3 mg/kg guanfacine free base equivalents, read-out: % inhibition of GIT transit compard to vehicle.
Where [13] appears, read: Rattus norvegicus, po, Study 1, oral dose 5 mg/kg guanfacine free base equivalents, read-out: % inhibition of GIT transit compard to vehicle.

This is an account of results in patent US20120178666A1 (SHIRE LLC, priority 2009, published 2012).

Where a name gives a salt, the structure may show the parent alone. Read-outs that look alike come from different tables or passages of the source.

As a reminder, the inhibition is the relative decrease from the control value, in per cent. With `CNCC(=O)N[C@@H](COC(=O)NC(=N)NC(=O)Cc1c(Cl)cccc1Cl)C(=O)O` [Compound 61, (S)-serine(guanfacine)-sarcosine carbamate di-trifluoroacetate], in the data set on gut motility (setting [8]), the inhibition at 0.1 mg/kg was found to be 8%, the inhibition at 0.3 mg/kg came to 25% and the inhibition at 1 mg/kg came out at 31%. In addition, in data set [1], the “prodrug levels in plasma (in words)” value is given as “detectable prodrug levels in plasma”. Also, the “% prodrug remaining following incubation for: 2 h in simulated intestinal fluid pH 6.8” value in data set [2] is reported as 96%. Further, the “% prodrug remaining following incubation for: 1 h in simulated gastric fluid pH 1.1” value in data set [3] is given as 92%. The “comparative systemic exposure to guanfacine (in words)” value in data set [4] is recorded as “similar”.

Regarding `CC(C)[C@H](NC(=O)CCCC(=O)NC(=N)NC(=O)Cc1c(Cl)cccc1Cl)C(=O)O` [Compound 1, guanfacine-[glutaryl-(S)-valine] amide trifluoroacetate], the “plasma guanfacine profile (in words)” value in data set [5] is listed as “sustained guanfacine concentrations”. Also, in the data set with gut motility (setting [8]), the inhibition at 0.1 mg/kg is 9%, the inhibition at 0.3 mg/kg worked out at 6%, the inhibition at 1 mg/kg worked out at 45% and the inhibition at 3 mg/kg stood at 50%. The inhibition at 5 mg/kg in the data set on gut motility (setting [8]) is 53%. Further, the “% prodrug remaining following incubation for: 2 h in simulated intestinal fluid pH 6.8” value in data set [2] is given as 92%. Moreover, the “% prodrug remaining following incubation for: 1 h in simulated gastric fluid pH 1.1” value in data set [3] was 80%.

On to `CNCC(=O)N[C@H](C(=O)O)[C@@H](C)OC(=O)NC(=N)NC(=O)Cc1c(Cl)cccc1Cl` [Compound 63, sarcosine-(2S,3R)-threonine(guanfacine) carbamate di-trifluoroacetate], for which, in the data set with gut motility (setting [8]), the inhibition at 0.1 mg/kg is 0%, the inhibition at 0.3 mg/kg turned out to be 13% and the inhibition at 1 mg/kg was 49%. For the same compound, in data set [1], the “prodrug levels in plasma (in words)” value is reported as “detectable prodrug levels in plasma”. Besides, the “% prodrug remaining following incubation for: 2 h in simulated intestinal fluid pH 6.8” value in data set [2] is recorded as 99%. The “% prodrug remaining following incubation for: 1 h in simulated gastric fluid pH 1.1” value in data set [3] was 86%. The “comparative systemic exposure to guanfacine (in words)” value in data set [4] is reported as “similar”.

As for `N=C(N)NC(=O)Cc1c(Cl)cccc1Cl` [Guanfacine, guanfacine, reference compound], the inhibition at 0.1 mg/kg came to 52% with gut motility (setting [9]) and 41% with gut motility (Rattus norvegicus, po, Study 2, oral dose 0.1 mg/kg guanfacine free base equivalents, read-out: % inhibition of GIT transit compard to vehicle). Moreover, the inhibition at 0.3 mg/kg with gut motility (setting [10]) amounted to 55%; in the data set on gut motility (Rattus norvegicus, po, Study 2, oral dose 0.3 mg/kg guanfacine free base equivalents, read-out: % inhibition of GIT transit compard to vehicle) it was 56%. Also, the inhibition at 1 mg/kg in the data set with gut motility (setting [11]) was found to be 47%. Besides, the inhibition at 0.03 mg/kg in the data set on gut motility (Rattus norvegicus, po, Study 2, oral dose 0.03 mg/kg guanfacine free base equivalents, read-out: % inhibition of GIT transit compard to vehicle) came out at 13%. Moreover, the “reduction in the distance travelled by the charcoal plug within 20 minutes compared to control group” value with gut motility (oral, 0.1 mg base/kg) is given as 41-52%. Moreover, the “food effect (in words)” value in data set [6] (fasted vs fed) was “apparent absence of a food effect”. For the same compound, the “time at which peak plasma drug levels are reached after dosing” value in data set [7] is at least 1 h.

For `O=C(O)CC[C@@H]1N=C(NC(=O)Cc2c(Cl)cccc2Cl)NC1=O` [Compound 37, Guanfacine-(S)-Glutamic Cyclic adduct], in data set [1], the “prodrug levels in plasma (in words)” value is “high prodrug levels”. Besides, the “% prodrug remaining following incubation for: 2 h in simulated intestinal fluid pH 6.8” value in data set [2] was 110%. Moreover, the “% prodrug remaining following incubation for: 1 h in simulated gastric fluid pH 1.1” value in data set [3] was 58%.

In the case of `CC(C)[C@@H](N)C(=O)N[C@@H](CCC(=O)NC(=N)NC(=O)Cc1c(Cl)cccc1Cl)C(=O)O` [Compound 5, guanfacine-γ-(S)-glutamic acid-(R)-valine amide di-trifluoroacetate], the “plasma guanfacine profile (in words)” value in data set [5] is reported as “sustained guanfacine concentrations”. Besides, the inhibition at 0.1 mg/kg with gut motility (setting [9]) came out at 6%. The inhibition at 0.3 mg/kg with gut motility (setting [10]) came out at 22%. Besides, the inhibition at 1 mg/kg in the data set on gut motility (setting [11]) was 48%. Moreover, in the data set with gut motility (Rattus norvegicus, po, Study 1, oral dose 1.7 mg/kg guanfacine free base equivalents, read-out: % inhibition of GIT transit compard to vehicle), the inhibition at 1.7 mg/kg was 50%. The inhibition at 3 mg/kg in the data set on gut motility (setting [12]) came out at 44%. Further, in the data set with gut motility (setting [13]), the inhibition at 5 mg/kg was 42%. In data set [2], the “% prodrug remaining following incubation for: 2 h in simulated intestinal fluid pH 6.8” value is listed as 89%. Also, the “% prodrug remaining following incubation for: 1 h in simulated gastric fluid pH 1.1” value in data set [3] was 86%.

Turning to `CC(C)[C@H](N)C(=O)NCCC(=O)NC(=N)NC(=O)Cc1c(Cl)cccc1Cl` [Compound 2, guanfacine-β-alanine-(S)-valine amide di-trifluoroacetate], the inhibition at 0.1 mg/kg with gut motility (setting [9]) was -3%. For the same compound, the inhibition at 0.3 mg/kg with gut motility (setting [10]) was determined as 30%. In addition, in the data set with gut motility (setting [11]), the inhibition at 1 mg/kg amounted to 42%. Also, the inhibition at 3 mg/kg with gut motility (setting [12]) stood at 42%. Also, the inhibition at 5 mg/kg in the data set with gut motility (setting [13]) turned out to be 42%. Moreover, in data set [1], the “prodrug levels in plasma (in words)” value is “detectable prodrug levels in plasma”. Further, the “mean Cmax (ng/mL) prodrug” value in data set [6] (Fasted, 0.5 mg/kg guanfacine equivalent, oral) is “BLQ”. Moreover, the “% prodrug remaining following incubation for: 2 h in simulated intestinal fluid pH 6.8” value in data set [2] is 89%. In addition, the “% prodrug remaining following incubation for: 1 h in simulated gastric fluid pH 1.1” value in data set [3] is given as 75%.
